Measurements from patent US9943529B2, “Methods for reducing cellular proliferation and treating certain diseases” (BRIGHAM YOUNG UNIVERSITY, priority 2013, dated 2018).

Experiments:
SN12C [1] = test: cells; details: Homo sapiens, 48 h
HCT-15 = test: cells; details: Homo sapiens, HCT-15, 48 h
SK-MEL-28 = test: cells; details: Homo sapiens, SK-MEL-28, 48 h
MOLT-4 = test: NCI screen antiproliferative activity, sulforhodamine B, Leukemia panel; format: cell-based, human; details: 48 hours, five 10-fold dilutions starting from 100 μM
NCI-H460 [2] = details: 48 hours, five 10-fold dilutions starting from 100 μM
NCI-H460 [3] = test: cells; details: Homo sapiens, NCI-H460, 48 h
COLO 205 = test: NCI screen antiproliferative activity, sulforhodamine B, Colon Cancer panel; format: cell-based, human; details: 48 hours, five 10-fold dilutions starting from 100 μM
ACHN = details: 48 hours, five 10-fold dilutions starting from 100 μM
SNB-75 [4] = test: cells; details: Homo sapiens, SNB-75, 48 h
786-0 [5] = test: cells; details: Homo sapiens, 786-0, 48 h
DU-145 = details: 48 hours, five 10-fold dilutions starting from 100 μM
LOX IMVI = test: NCI screen antiproliferative activity, sulforhodamine B, Melanoma panel; format: cell-based, human; details: 48 hours, five 10-fold dilutions starting from 100 μM
MDA-MB-231/ATCC = test: cells; details: Homo sapiens, MDA-MB-231, 48 h
EKVX = test: cells; details: Homo sapiens, 48 h
OVCAR-4 [6] = details: 48 hours, five 10-fold dilutions starting from 100 μM
NCI-H322M = details: 48 hours, five 10-fold dilutions starting from 100 μM
HT29 = test: cells; details: Homo sapiens, HT-29, 48 h
SK-OV-3 = test: cells; details: Homo sapiens, SK-OV-3, 48 h
U251 [7] = details: 48 hours, five 10-fold dilutions starting from 100 μM
MCF7 = details: 48 hours, five 10-fold dilutions starting from 100 μM
PC-3 = details: 48 hours, five 10-fold dilutions starting from 100 μM
SF-268 = details: 48 hours, five 10-fold dilutions starting from 100 μM
OVCAR-4 [8] = test: cells; details: Homo sapiens, OVCAR-4, 48 h
SF-295 = details: 48 hours, five 10-fold dilutions starting from 100 μM
MDA-MB-435 = details: 48 hours, five 10-fold dilutions starting from 100 μM
MALME-3M = test: NCI screen antiproliferative activity, sulforhodamine B, Melanoma panel; format: cell-based, human; details: 48 hours, five 10-fold dilutions starting from 100 μM
SNB-75 [9] = details: 48 hours, five 10-fold dilutions starting from 100 μM
UACC-257 [10] = details: 48 hours, five 10-fold dilutions starting from 100 μM
U251 [11] = test: cells; details: Homo sapiens, U-251, 48 h
NCI-H23 = details: 48 hours, five 10-fold dilutions starting from 100 μM
HOP-62 [12] = test: cells; details: Homo sapiens, HOP-62, 48 h
SN12C [13] = details: 48 hours, five 10-fold dilutions starting from 100 μM
K-562 = test: NCI screen antiproliferative activity, sulforhodamine B, Leukemia panel; format: cell-based, human; details: five 10-fold dilutions starting from 100 μM
HOP-62 [14] = details: 48 hours, five 10-fold dilutions starting from 100 μM
SW-620 = test: NCI screen antiproliferative activity, sulforhodamine B, Colon Cancer panel; format: cell-based, human; details: 48 hours, five 10-fold dilutions starting from 100 μM
HCT-116 = details: 48 hours, five 10-fold dilutions starting from 100 μM
OVCAR-8 = test: cells; details: Homo sapiens, OVCAR-8, 48 h
CAKI-1 = test: cells; details: Homo sapiens, CAKI-1, 48 h
UACC-257 [15] = test: cells; details: Homo sapiens, UACC-257, 48 h
OVCAR-5 [16] = test: cells; details: Homo sapiens, OVCAR-5, 48 h
NCI-H226 = details: 48 hours, five 10-fold dilutions starting from 100 μM
OVCAR-5 [17] = details: 48 hours, five 10-fold dilutions starting from 100 μM
786-0 [18] = details: 48 hours, five 10-fold dilutions starting from 100 μM
T-47D = test: cells; details: Homo sapiens, T47D, 48 h

Structure (SMILES): CCCCCCCCNCCC[C@@H](C)[C@H]1CC[C@H]2[C@@H]3[C@H](OCCCN)C[C@@H]4C[C@H](OCCCN)CC[C@]4(C)[C@H]3C[C@H](OCCCN)[C@]12C [CSA-13]
- GI50 (SN12C [1]): 0.571 µM
- CC50 (SN12C [1]; read-out: LC50): 27 µM
- GI50 (HCT-15): 2.63 µM
- CC50 (HCT-15; read-out: LC50): 63.9 µM
- GI50 (SK-MEL-28): 0.291 µM
- CC50 (SK-MEL-28; read-out: LC50): 5.46 µM
- TGI (MOLT-4): 2.93 µM
- GI50 (MOLT-4; Homo sapiens): 1.25 µM
- TGI (NCI-H460 [2]): 3.92 µM
- GI50 (NCI-H460 [3]): 1.21 µM
- CC50 (NCI-H460 [3]; read-out: LC50): 15.5 µM
- TGI (COLO 205): 3.02 µM
- GI50 (COLO 205; Homo sapiens): 1.27 µM
- TGI (ACHN): 3.68 µM
- GI50 (SNB-75 [4]): 1.76 µM
- CC50 (SNB-75 [4]; read-out: LC50): 57.2 µM
- GI50 (786-0 [5]): 0.837 µM
- CC50 (786-0 [5]; read-out: LC50): 5.4 µM
- TGI (DU-145): 2.35 µM
- TGI (LOX IMVI): 1.73 µM
- GI50 (LOX IMVI; Homo sapiens): 0.378 µM
- GI50 (MDA-MB-231/ATCC): 0.422 µM
- CC50 (MDA-MB-231/ATCC; read-out: LC50): > 100 µM
- GI50 (EKVX): 1.32 µM
- CC50 (EKVX; read-out: LC50): 8.62 µM
- TGI (OVCAR-4 [6]): 25.2 µM
- TGI (NCI-H322M): 9.31 µM
- GI50 (HT29): 1.11 µM
- CC50 (HT29; read-out: LC50): 34 µM
- GI50 (SK-OV-3): 3.45 µM
- CC50 (SK-OV-3; read-out: LC50): 93.1 µM
- TGI (U251 [7]): 3.05 µM
- TGI (MCF7): 3.09 µM
- TGI (PC-3): >100 µM
- TGI (SF-268): 3.70 µM
- GI50 (OVCAR-4 [8]): 5.51 µM
- CC50 (OVCAR-4 [8]; read-out: LC50): 83 µM
- TGI (SF-295): 2.66 µM
- TGI (MDA-MB-435): 1.46 µM
- TGI (MALME-3M): 3.88 µM
- GI50 (MALME-3M; Homo sapiens): 1.76 µM
- TGI (SNB-75 [9]): 5.93 µM
- TGI (UACC-257 [10]): 9.00 µM
- GI50 (U251 [11]): 1.37 µM
- CC50 (U251 [11]; read-out: LC50): 6.81 µM
- TGI (NCI-H23): 3.12 µM
- GI50 (HOP-62 [12]): 0.806 µM
- CC50 (HOP-62 [12]; read-out: LC50): 9.74 µM
- TGI (SN12C [13]): 3.55 µM
- TGI (K-562; 48 hours): 2.47 µM
- GI50 (K-562; Homo sapiens, K562, 48 hours): 1.04 µM
- TGI (HOP-62 [14]): 2.96 µM
- TGI (SW-620): 2.67 µM
- GI50 (SW-620; Homo sapiens): 1.16 µM
- TGI (HCT-116): 2.61 µM
- GI50 (OVCAR-8): 1.64 µM
- CC50 (OVCAR-8; read-out: LC50): 9.82 µM
- GI50 (CAKI-1): 2.05 µM
- CC50 (CAKI-1; read-out: LC50): 68 µM
- GI50 (UACC-257 [15]): 2.71 µM
- CC50 (UACC-257 [15]; read-out: LC50): 97.9 µM
- GI50 (OVCAR-5 [16]): 1.55 µM
- CC50 (OVCAR-5 [16]; read-out: LC50): 58.4 µM
- TGI (NCI-H226): 12.8 µM
- TGI (OVCAR-5 [17]): 9.44 µM
- TGI (786-0 [18]): 2.26 µM
- GI50 (T-47D): 1.92 µM
- CC50 (T-47D; read-out: LC50): > 100 µM
